Data reported in publication PMC6746776, “TA*p63 and GTAp63 achieve tighter transcriptional regulation in quality control by converting an inhibitory element into an additional transactivation domain” (Cell Death & Disease, 2019).
Positions count from the first letter of the chain named. Entries after “also recorded” stand apart in the source; their conditions may differ.

Columns and labels:
[1] = tested on: mutant p53 in Sum159 cells; assay: Western blot, mutant p53 level in Sum159 cells; assay type: cell-based, human; conditions: 10 µM Dox, mutant p53, immunoblotting (DO-1)
Experimental: (§1) 4–15 or 7.5% SDS–PAGE Mini-PROTEAN TGX gels (BioRad) were blotted using the semidry Trans-Blot Turbo Transfer system (BioRad).The following antibodies were prepared in 5% milk in TBS-T and incubated overnight at 4 °C: anti-Myc (1:1000, clone 4A6, Millipore), anti-p63 (1:2500, ab124762, Abcam), anti-p63α XP (1:1000, D2K8X, Cell Signaling), anti-GAPDH (1:20,000, clone 6C5, Merck), anti-p53 (1:500, DO-1, Santa Cruz), anti-PARP (1:1000, 9542, Cell Signaling), anti-cleaved caspase3 (1:1000, 5A1E,Cell Signaling), and anti-vinculin (1:1000, clone 7F9, Santa Cruz). Secondary antibodies, used for detection, were also prepared in 5% milk in TBS-T and incubated for 1 h at RT (goat anti-mouse HRP, 1:5000, A9917, Sigma–Aldrich; goat anti-rabbit HRP, 1:2000, Jackson Immuno Research Europe Ltd., 111–035–144). Quantification of western blot signals was performed by using ImageJ.
(§2) Supplementary Figure S8 Dox treatment induces apoptosis in the breast cancer cell line Sum159. SDS-PAGEs followed by immunoblotting of Dox treated (10 µM) Sum159 cells. (a) Western blot was analyzed for the apoptosis markers PARP (#9542, Cell Signaling) and caspase 3 (5A1E, Cell Signaling). PARP and caspase3 cleavage were detectable starting at 4 h following treatment. (b) Mutant p53 (DO-1, Santa Cruz) and TA*p63α (D2K8X, Cell Signaling) levels were also investigated. […] GAPDH was used as loading control.

TA*p63α in Sum159 cells [2] = assay: Western blot, TA*p63α level in Sum159 cells; assay type: cell-based, human; conditions: 10 µM Dox, immunoblotting (D2K8X)
Experimental: as §1, §2

Sum159 cells [3] = assay: Cell survival assay of Sum159 cells (crystal violet); assay type: cell-based, human; conditions: 1.5 µM Dox for 24 h, cultured for additional 24 h (24–30 h in method), vs DMSO
Experimental: (§3) Immunoprecipitation was performed with two different p63 specific antibodies, AHP1815 (BioRad) and ab124267 (Abcam). For detection on WB, the p63α XP (D2K8X, cell signaling) antibody was used. b Specific TA*-peptides were found in two independent IP-MS analyses of immunoprecipitated p63 from Sum159 cells. Immunoprecipitation was performed with the p63 antibody ab124267 (Abcam). Two different types of mass spectrometers relying on different fragmentation and detection approaches were used for the experiments (IT: ion trap, CID: collision induced dissociation, FT: Fourier transform, HCD: higher-energy collisional dissociation). c BN-PAGE (3–12%) of Sum159 lysate followed by western blotting for TA*p63α. […] Cells were treated with 1.5 µM Dox or DMSO for 24 h (six-well plate) and cultured for additional 24–30 h. Sum159 cells were fixed with glutaraldehyde (6%) and stained with crystal violet (0.5%)
Sum159 cells were seeded in a six-well plate. Two days after seeding, cells were treated either with 1.5 µM Dox or DMSO for 24 h. The medium was changed and cells were cultured for additional 24–30 h. Afterwards, cells were washed three times with PBS and the fixation and staining solution (0.5% crystal violet, 6% glutaraldehyde) was incubated 1–2 h at RT. The solution was aspirated and the fixed cells were washed about five times with H2O and dried for 1–2 days at RT.

TA*p63α in Sum159 cells [4] = assay: BN-PAGE of Sum159 lysate, oligomeric state of endogenous TA*p63α; assay type: cell-based, human; conditions: 10 µM Dox, different periods of time, BN-PAGE (3–12%)
Experimental: as §3
To test whether TA*p63α can be activated in Sum159 cells by chemotherapeutic agents and induce apoptosis we treated cells with 10 µM Dox. […] Furthermore, the apoptosis marker cleaved PARP and cleaved Caspase3 are detectable starting 4 h following treatment (Supplementary Fig. S8). We also investigated cell survival.

TAp63α = assay: BN-PAGE oligomeric state of TAp63α upon Dox treatment
Experimental: (§4) As a control, we used the S582/S583A mutants, which remove the Chk2 priming site preventing tetramerization[13].
(§5) Three hundred nanogram expression vector carrying the p63α gene were transiently transfected in U2OS cells (12-well plate). The next day, cells were treated with 10 µM Dox for 6 h. Migration of the different oligomeric states is indicated by T (tetramer), D (dimer), and M (monomer). […] Western blot analysis was carried out using an anti-myc antibody (4A6, Merck). Cells were pre-incubated with increasing Chk2 (BML-277, Merck) or CK1 inhibitor (PF670462, Sigma–Aldrich) concentrations (5, 25, 50 µM) for 1 h. Afterwards, 10 µM Dox was added and cells were harvested 6 h later. Migration of the different oligomeric states is indicated by T (tetramer), D (dimer), and M (monomer). Vinculin was used as loading control. Protein levels loaded on BN-PAGE were adjusted to equal p63 amounts by prior western blot analysis. SDS-PAGE to detect phosphoshifts were not input adjusted
(§6) H1299 cells were transfected using the Qiagen Effectene kit according to the manufacturer’s manual in a 12-well plate or H1299 cells stably expressing p63 isoforms were used. Cells were harvested and lysed in NP lysis buffer (20 mM Tris, 150 mM NaCl, 2 mM MgCl2, 20 mM CHAPS, 1 mM DTT, complete protease inhibitor cocktail (Roche), PhosSTOP (Roche) pH 7.4 or pH 8.0). Benzonase (Merck) was added and samples were lysed on ice for 1 h. BN-PAGE (3–12%, Thermo Fisher Scientific) was performed and blotted as previously described[17],[35]. Protein levels loaded on BN-PAGE were adjusted to equal p63 amounts by prior western blot analysis. SDS-PAGE to detect phosphoshifts were not input adjusted.
300 ng expression vector carrying the p63 gene were transiently transfected in H1299 cells (12-well plate). The next day, cells were treated with 10 µM Dox for 6 h. Migration of the different oligomeric states is indicated by T (tetramer), D (dimer) and M (monomer). […] Stably p63 expressing H1299 were treated with 10 µM Dox for up to 10 h. […]

Sum159 cells [5] = assay: Western blot, apoptosis markers cleaved PARP and cleaved Caspase3 in Sum159 cells; assay type: cell-based, human; conditions: 10 µM Dox, immunoblotting
Experimental: as §1, §2

TA*p63α = assay: BN-PAGE oligomeric state of TA*p63α upon Dox treatment
Experimental: as §4, §5, §6
(§7) 300 ng expression vector carrying the p63 gene were transiently transfected in H1299 cells (12-well plate). The next day, cells were treated with 10 µM Dox for 6 h. Migration of the different oligomeric states is indicated by T (tetramer), D (dimer) and M (monomer). […] Stably p63 expressing H1299 were treated with 10 µM Dox for up to 10 h. Protein levels loaded on BN-PAGE were adjusted to equal p63 amounts by prior western blot analysis. SDS-PAGE to detect phosphoshifts were not input adjusted.

GTAp63α = assay: BN-PAGE oligomeric state of GTAp63α upon Dox treatment
Experimental: as §4, §5, §6, §7

[6] = target: GTA-GTA* peptide (1′-37′) (not stated (isoform of humans and great apes)); assay: fluorescence polarisation; fluorescence anisotropy; 100 nM N-terminally fluorescein-labelled peptide, increasing concentration of Taz2; 22 °C; two site specific binding fit
[7] = target: T1, TA*-GTA* peptide (1*-39*) (fluorescein on the N-terminus); assay: as above; conditions: both partners purified
T1 chain: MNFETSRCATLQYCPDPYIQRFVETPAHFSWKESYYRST

[8] = target: the molecule itself; assay: SEC; in vitro translated protein in rabbit reticulocyte lysate on Superose 6 3.2/300, 50 mM sodium phosphate pH 7.8, 100 mM NaCl, 4 °C; fractions analysed by western blot
TAp63α FWL = assay: as above
[9] = target: the molecule itself; assay: native gel or EMSA; Blue-Native PAGE (3-12%) of Sum159 lysate, endogenous protein, cells treated with 10 µM doxorubicin for different periods of time
[10] = target: the molecule itself; assay: native gel or EMSA; Blue-Native PAGE (3-12%) of Sum159 lysate, endogenous protein, before doxorubicin
[11] = H1299 stably expressing, 10 µM Dox for up to 10 h, BN-PAGE (Supplementary Fig. S4c)
[12] = transfected U2OS and H1299 cells, 10 µM Dox, 6 h, BN-PAGE

COc1cccc2c1C(=O)c1c(O)c3c(c(O)c1C2=O)C[C@@](O)(C(=O)CO)C[C@@H]3O[C@H]1C[C@H](N)[C@H](O)[C@H](C)O1 [Dox, doxorubicin]
p53 level during treatment [1]: A decrease in p63 and p53 level is detectable
p63 level during treatment (TA*p63α in Sum159 cells [2]): A decrease in p63 and p53 level is detectable
cell survival (cell density) (Sum159 cells [3]): clear decrease in cell density
shift of oligomeric state of TA*p63α in Sum159 cells (TA*p63α in Sum159 cells [4]): activated upon Dox treatment; also recorded: shifted from the inactive, dimeric to the active, tetrameric form
shift of oligomeric state of TA*p63α in Sum159 cells (TA*p63α in Sum159 cells [4]; listed as doxorubicin): TA*p63α gets activated
tetramer/dimer ratio following Dox, TAp63α (TAp63α; [11]): almost completely converted into tetramers
time after which TAp63α becomes partly tetrameric (TAp63α; tetramerization kinetics, H1299 stably expressing, 10 µM Dox for up to 10 h): 1 h
activation to tetrameric state, TAp63α (TAp63α; [12]): activates all three isoforms to adopt tetrameric states
time from which cleaved Caspase3 is detectable (Sum159 cells [5]): 4 h
time from which cleaved PARP is detectable (Sum159 cells [5]): 4 h
tetramer/dimer ratio following Dox, TA*p63α (TA*p63α; [11]): do not achieve predominant tetramerization like TAp63α; also recorded: significant population of the dimeric state; also recorded: do not reach the high tetramer/dimer ratio seen with TAp63α
activation to tetrameric state, TA*p63α (TA*p63α; [12]): activates all three isoforms to adopt tetrameric states
tetramer/dimer ratio following Dox, GTAp63α (GTAp63α; [11]): do not achieve predominant tetramerization like TAp63α; also recorded: significant population of the dimeric state; also recorded: do not reach the high tetramer/dimer ratio seen with TAp63α
activation to tetrameric state, GTAp63α (GTAp63α; [12]): activates all three isoforms to adopt tetrameric states

B1: p300 Taz2 domain (domain or fragment)
chain: ATQSPGDSRRLSIQRCIQSLVHACQCRNANCSLPSCQKMKRVVQHTKGCKRKTNGGCPICKQLIALCCYHAKHCQENKCPVPFCLNIKQK
Kd [6]: 4.79 µM
Kd [7]: 13.2 ± 0.93 µM

B2: TA*p63α FWL (natural protein, UniProt Q9H3D4-1 1-680, looked up)
chain: MNFETSRCATLQYCPDPYIQRFVETPAHFSWKESYYRSTMSQSTQTNEFLSPEVAQHIADFAEQPICSVQPIDLNFVDEPSEDGATNKIEISMDCIRMQDSDLSDPMWPQYTNLGLLNSMDQQIQNGSSSTSPYNTDHAQNSVTAPSPYAQPSSTFDALSPSPAIPSNTDYPGPHSFDVSFQQSSTAKSATWTYSTELKKLYCQIAKTCPIQIKVMTPPPQGAVIRAMPVYKKAEHVTEVVKRCPNHELSREFNEGQIAPPSHLIRVEGNSHAQYVEDPITGRQSVLVPYEPPQVGTEFTTVLYNFMCNSSCVGGMNRRPILIIVTLETRDGQVLGRRCFEARICACPGRDRKADEDSIRKQQVSDSTKNGDGTKRPFRQNTHGIQMTSIKKRRSPDDELLYLPVRGRETYEMLLKIKESLELMQYLPQHTIETYRQQQQQQHQHLLQKQTSIQSPSSYGNSSPPLNKMNSMNKLPSVSQLINPQQRNALTPTTIPDGMGANIPMMGTHMPMAGDMNGLSPTQALPPPLSMPSTSHCTPPPPYPTDCSIVSFLARLGCSSCLDYFTTQGLTTIYQIEHYSMDDLASLKIPEQFRHAIWKGILDHRQLHEFSSPSHLLRTPSSASTVSVGSSETRGERVIDAVRFTLRQTISFPPRDEWNDFNFDMDARRNKQQRIKEEGE
notes: TA*p63α: another translation start site adds 39 aa N-terminally to TAp63α; also called FWL mutant of TA*p63α; source: in vitro translated (rabbit reticulocyte lysate); not shown: myc, N-terminal, kept
stoichiometry N [8]: 2
stoichiometry N (TAp63α FWL): 4

B3: TA*p63α (natural protein, human (endogenous in Sum159), UniProt Q9H3D4-1 1-680, looked up)
chain: B2 chain with A55F, A59W, A62L
notes: also called endogenous TA*p63α of Sum159 cells; source: endogenous, Sum159 lysate
stoichiometry N [9]: 4
stoichiometry N [10]: 2
